Assay [1] has as its system NCI-H460 cells. Nature of the assay: Antiproliferation assay - oxygen dependence. It is filed as cell-based, human. The text has this:
. […] The calculated IC50 values (μM) are tabulated in Table Y1 (H460 cells) or Table Y2 (HT29 cells) below.

In assay [2] the test system is NCI-H460 cells. Nature of the assay: Antiproliferation assay (Alamar Blue), anoxia vs air.
The test system of another assay is H460 cell line. Nature of the assay: Anti-proliferation assay, hypoxia vs normoxia (Table 1A). The following applies: for pIC50: Homo sapiens; for HCR P: ratio of IC50 in normoxia and hypoxia.
Where [3] appears, read: Homo sapiens, NCI-H460, read-out: IC50 in H460 cells, 0.6% O2.
Setting [4] is: Homo sapiens, NCI-H460, read-out: IC50 in H460 cells, Air.
Where [5] appears, read: Homo sapiens, NCI-H460, read-out: IC50 in H460 cells, N2.
[6] abbreviates: Homo sapiens, NCI-H460, 2 h, read-out: IC50 H460 Air, air, 2 h exposure.
The mark [7] stands for this setting: Homo sapiens, NCI-H460, 2 h, read-out: IC50 H460 Anoxia, anoxia, 2 h exposure.
[8] abbreviates: Air; read-out: IC50 in H460 cells, Air.
Setting [9] is: N2; read-out: IC50 in H460 cells, N2.
[10] abbreviates: read-out: IC50 in H460 cells, 0.6% O2.
[11] abbreviates: read-out: IC50 H460 Air, air, 2 h exposure.
[12] abbreviates: read-out: IC50 H460 Anoxia, anoxia, 2 h exposure.
[13] abbreviates: NCI-H460, read-out: Hypoxia P (proliferation IC50).
Setting [14] is: NCI-H460, read-out: Normoxia P (proliferation IC50).

pIC50: −log10 of the molar value. Where two headings read alike, the source gives them in different places.

Turning to `COc1cc(COP(=O)(NCCBr)NCCBr)ccc1OCc1cnc([N+](=O)[O-])n1C` [Compound 56], the pIC50 in the assay on NCI-H460 cells [1] (setting [3]) is 5.10; in the assay with NCI-H460 cells [1] (setting [4]), 5.00; in the assay on NCI-H460 cells [1] (setting [5]), 6.30; in the assay on NCI-H460 cells [2] (setting [6]), 5.00; in the assay with NCI-H460 cells [2] (setting [7]), 6.30.
`CC(OP(=O)(NCCBr)NCCBr)c1ccc(OCc2cnc([N+](=O)[O-])n2C)c([N+](=O)[O-])c1` (centres unmarked) [Compound 61]: the pIC50 in the assay with NCI-H460 cells [1] (setting [8]) was 5.40; in the assay with NCI-H460 cells [1] (setting [9]) it was 6.52; with NCI-H460 cells [1] (setting [10]), 5.40; with NCI-H460 cells [2] (setting [11]), 5.40; in the assay with NCI-H460 cells [2] (setting [12]), 6.52.
With `CCN(CCOP(=O)(NCCBr)NCCBr)C(=O)OCc1cnc([N+](=O)[O-])n1C` [Compound 62], the pIC50 with NCI-H460 cells [1] (setting [3]) was 4.52; with NCI-H460 cells [1] (setting [4]) it was 4.35; with NCI-H460 cells [1] (setting [5]) it was 5.70; with NCI-H460 cells [2] (setting [6]), 4.35; in the assay on NCI-H460 cells [2] (setting [7]), 5.70.
Take `O=[N+]([O-])c1cnc(-c2ccc(COP(=O)(NCCBr)NCCBr)cc2)s1` [Compound 63]: the pIC50 in the assay with NCI-H460 cells [1] (setting [3]) is 4.82; in the assay with NCI-H460 cells [1] (setting [4]), 5.10; with NCI-H460 cells [1] (setting [5]), 6.00; with NCI-H460 cells [2] (setting [6]) it was 5.10; in the assay on NCI-H460 cells [2] (setting [7]), 6.00.
`C[C@H](CBr)NP(=O)(N[C@H](C)CBr)OCc1cnc([N+](=O)[O-])n1C` [Compound 66]: the pIC50 in the assay with NCI-H460 cells [1] (setting [10]) is 4.70; with NCI-H460 cells [1] (read-out: IC50 in H460 cells, N2), 6.52; in the assay with NCI-H460 cells [2] (read-out: IC50 H460 Anoxia), 6.52.
On to `CCCn1c(COP(=O)(NCCBr)NCCBr)cnc1[N+](=O)[O-]` [Compound 84], for which the pIC50 in the assay with NCI-H460 cells [1] (setting [3]) is 5.52; in the assay with NCI-H460 cells [1] (setting [4]), 4.40; in the assay with NCI-H460 cells [2] (setting [6]) it was 4.40; in the assay on NCI-H460 cells [2] (setting [7]), 8.52.
As for `N#Cc1cc(C#CCOP(=O)(NCCBr)NCCBr)sc1[N+](=O)[O-]` [Compound 98], the pIC50 with NCI-H460 cells [1] (setting [8]) was 5.70; with NCI-H460 cells [1] (setting [10]) it was 6.30; with NCI-H460 cells [2] (setting [11]), 5.70; in the assay on NCI-H460 cells [2] (setting [12]) it was 7.00.
Consider `CC#Cc1cc(COP(=O)(NCCBr)NCCBr)sc1[N+](=O)[O-]` [Compound 99], for which the pIC50 with NCI-H460 cells [1] (setting [8]) is 6.00; in the assay on NCI-H460 cells [1] (setting [10]) it was 6.30; with NCI-H460 cells [2] (setting [11]), 6.00; in the assay with NCI-H460 cells [2] (setting [12]), 7.00.
Turning to `Cc1csc(C(C)OP(=O)(NCCCl)NCCCl)c1[N+](=O)[O-]` (centres unmarked) [Compound 100], the pIC50 in the assay on NCI-H460 cells [1] (setting [8]) was 4.46; in the assay on NCI-H460 cells [1] (setting [9]) it was 6.30; in the assay with NCI-H460 cells [1] (setting [10]), 5.00; in the assay on NCI-H460 cells [2] (setting [11]), 4.46; in the assay with NCI-H460 cells [2] (setting [12]) it was 6.30.
Regarding `O=[N+]([O-])c1ccc(COP(=O)(NCCOS(=O)(=O)c2ccccc2)NCCOS(=O)(=O)c2ccccc2)o1` [Compound 106], the pIC50 in the assay with NCI-H460 cells [1] (setting [3]) was 6.15; with NCI-H460 cells [1] (Homo sapiens, NCI-H460; read-out: IC50 in H460 cells, Air), 5.40; with NCI-H460 cells [1] (Homo sapiens, NCI-H460; read-out: IC50 in H460 cells, N2), 7.00; in the assay with NCI-H460 cells [2] (Homo sapiens, NCI-H460, 2 h, read-out: IC50 H460 Air), 5.46; with NCI-H460 cells [2] (Homo sapiens, NCI-H460, 2 h, read-out: IC50 H460 Anoxia) it was 7.05.
For the compound `O=[N+]([O-])c1ccc(COP2(=O)N(CCBr)CCN2CCBr)o1` [Compound 109], the pIC50 in the assay with NCI-H460 cells [1] (setting [3]) is 5.00; in the assay on NCI-H460 cells [1] (setting [4]), 4.82; in the assay on NCI-H460 cells [1] (setting [5]) it was 6.52; in the assay on NCI-H460 cells [2] (setting [6]), 4.89; with NCI-H460 cells [2] (setting [7]), 6.52.
For the compound `O=[N+]([O-])c1ccc(COP2(=O)N(CCBr)CCN2CCBr)s1` [Compound 110], the pIC50 in the assay with NCI-H460 cells [1] (setting [3]) was 5.52; in the assay with NCI-H460 cells [1] (setting [4]), 4.60; in the assay with NCI-H460 cells [1] (setting [5]), 6.52; in the assay with NCI-H460 cells [2] (setting [6]), 4.68; with NCI-H460 cells [2] (setting [7]), 6.52.
Take `CC(C)(OP(N)(=O)N(CCCl)CCCl)c1ccc([N+](=O)[O-])cc1` (centres unmarked) [Compound 113]: the pIC50 is less than 4.00 with NCI-H460 cells [1] (setting [3]); less than 4.00 in the assay on NCI-H460 cells [1] (setting [4]); 6.00 in the assay on NCI-H460 cells [1] (setting [5]); no more than 4.00 with NCI-H460 cells [2] (setting [6]); 6.00 with NCI-H460 cells [2] (setting [7]).
With `CC(OP(N)(=O)N(CCCl)CCCl)c1cnc([N+](=O)[O-])n1C` (centres unmarked) [Compound 114], the pIC50 is 5.30 in the assay with NCI-H460 cells [1] (setting [3]); 4.10 in the assay on NCI-H460 cells [1] (setting [4]); 6.00 in the assay on NCI-H460 cells [1] (setting [5]); 4.10 in the assay with NCI-H460 cells [2] (setting [6]); 6.00 in the assay on NCI-H460 cells [2] (setting [7]).
As for `O=[N+]([O-])c1ccc(COP(=O)(N(CCCl)CCCl)N(CCCl)CCCl)o1` [Compound P22, reference compound], the pIC50 is 5.35 with H460 cell line (setting [13]) and 5.46 in the assay on H460 cell line (setting [14]). In the assay with H460 cell line, the “HCR P” value is “ca. 1”.
For `Cn1c([N+](=O)[O-])cnc1COc1ccc(COP(N)(=O)N(CCCl)CCCl)cc1` (centres unmarked) [Compound S1] the same measures were less than 4.40, less than 4.00 and greater than 3.
For `Cn1c(COP2(=O)N(CCCl)CCN2CCCl)cnc1[N+](=O)[O-]` [Compound S2] the same measures were 5.15, less than 4.00 and greater than 14.

The values above are taken from patent US8507464B2, “Phosphoramidate alkylator prodrugs” (Threshold Pharmaceuticals, Inc., priority 2005, dated 2013).
